From PMC2196141 (The Journal of Experimental Medicine, 1997)

Target: T1, CPP-32 (Homo sapiens, UniProt P42574)
T1 sequence (P42574 29-175 limits assumed): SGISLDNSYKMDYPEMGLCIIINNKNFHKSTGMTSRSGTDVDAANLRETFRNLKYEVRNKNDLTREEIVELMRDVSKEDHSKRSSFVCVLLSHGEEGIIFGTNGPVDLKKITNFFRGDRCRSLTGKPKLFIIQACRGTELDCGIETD
Assay: S-nitrosylation of purified p17
Format: biochemical

- p17 wt / S-nitrosylation / S-NO/protein: 1 ± 0.04 mol/mol
SMILES: [N]=O [NO, nitric oxide]
